Patent US20060094003A1, “Acetylcholine-dependent current as a novel ionic target for atrial fibrillation” (priority 2004, published 2006)
Where “and” joins values, the source holds several entries; their conditions need not be identical. Identical values can stand only once.

How the values were obtained:
Kir 3.1/3.4 currents = biological target: T1, Kir 3.1/3.4 currents (Homo sapiens, UniProt P48544+P48549); settings: Jin & Lu, 1999; cited from earlier work
T1 sequence (P48549 1-501): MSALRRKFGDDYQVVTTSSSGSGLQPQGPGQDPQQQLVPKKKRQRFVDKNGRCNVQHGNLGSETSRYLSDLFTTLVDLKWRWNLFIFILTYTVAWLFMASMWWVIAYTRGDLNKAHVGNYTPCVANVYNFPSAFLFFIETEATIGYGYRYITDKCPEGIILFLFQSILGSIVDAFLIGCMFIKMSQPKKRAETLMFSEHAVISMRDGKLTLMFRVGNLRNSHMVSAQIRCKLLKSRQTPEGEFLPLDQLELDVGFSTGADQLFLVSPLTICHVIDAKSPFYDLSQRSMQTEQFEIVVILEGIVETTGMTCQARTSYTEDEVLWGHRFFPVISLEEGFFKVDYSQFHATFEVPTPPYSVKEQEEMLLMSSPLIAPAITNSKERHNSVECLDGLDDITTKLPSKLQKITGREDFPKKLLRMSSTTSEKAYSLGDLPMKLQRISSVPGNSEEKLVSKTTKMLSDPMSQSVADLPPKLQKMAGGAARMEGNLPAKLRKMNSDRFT
T1 sequence (P48544 1-419): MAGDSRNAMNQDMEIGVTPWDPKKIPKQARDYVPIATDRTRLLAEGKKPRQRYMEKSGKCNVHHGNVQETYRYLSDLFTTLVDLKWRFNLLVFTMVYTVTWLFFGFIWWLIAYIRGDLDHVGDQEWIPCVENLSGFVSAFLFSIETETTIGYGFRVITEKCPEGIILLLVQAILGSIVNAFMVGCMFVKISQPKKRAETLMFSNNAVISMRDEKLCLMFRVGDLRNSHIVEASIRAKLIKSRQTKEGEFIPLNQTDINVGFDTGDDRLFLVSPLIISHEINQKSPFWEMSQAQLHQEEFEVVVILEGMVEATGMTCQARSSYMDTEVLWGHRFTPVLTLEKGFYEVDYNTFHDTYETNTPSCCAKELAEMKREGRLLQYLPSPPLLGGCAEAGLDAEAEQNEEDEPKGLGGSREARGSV

[1] = test system: instantaneous inward-rectifier current; test: Whole-cell patch-clamp of instantaneous inward-rectifier current in canine cardiomyocytes; format: cell-based; settings: 1 μM tertiapin-Q; not statistically significant
Experimental: (§1) Adult mongrel dogs of either sex (weighing about 20-35 kg) were anaesthetized with pentobarbital (30 mg kg^−1 I.V.) and artificially ventilated with room air. Hearts and adjacent lung tissue were relatively quickly excised through a left lateral thoracotomy and immersed in oxygenated Tyrode solution (composition detailed hereinbelow) at room temperature. […] A left atrial (LA) preparation with the PVs intact was perfused via the left circumflex coronary artery, and subjected to either standard fine-tipped microelectrode recording of action potentials (APs) or cardiomyocyte isolation with collagenase-containing solutions, as previously described (Ehrlich et al. 2003). Six dogs were subjected to atrial tachycardia-induced remodeling induced by 1 week of atrial pacing at about 400 beats min^−1 after ablation of the AV node, as described in Li et al. 1999. Animal care and handling procedures followed the guidelines of the Canadian Council on Animal Care.
To isolate LA and PV cardiomyocytes, the proximal circumflex artery was cannulated and the distal ends of PV myocardial sleeves (approximately 1-1.5 cm from the PV-LA junction) were marked with silk thread prior to subsequent enzyme perfusion with collagenase (100 U ml^−1, Worthington, type II), in order to facilitate localization of PV sleeves after enzymatic digestion. […] All comparisons were based on PV and LA cardiomyocytes isolated from each dog on each experimental day. After isolation, cells were stored at 4° C. and studied on the same day. […]
Currents were recorded with the whole-cell patch-clamp technique at 36±0.5° C., as described in Yue et al. 1996. […] Capacitance was assessed using 5 mV, 10 ms hyperpolarizing steps from a holding potential (HP) of −60 mV. […]
Currents were recorded with hyperpolarizing and depolarizing pulses (generally 4 s duration) from a HP of −40 mV to selected test potentials (TPs). […] For the determination of reversal potentials, tail currents were recorded after 1.6 s pulses to −120 mV followed by 3.2 s depolarizations to TPs between −110 and +20. […]

IKH = format: cell-based, canine
Experimental: as §1
To isolate LA and PV cardiomyocytes, the proximal circumflex artery was cannulated and the distal ends of PV myocardial sleeves (approximately 1-1.5 cm from the PV-LA junction) were marked with silk thread prior to subsequent enzyme perfusion with collagenase (100 U ml^−1, Worthington, type II), in order to facilitate localization of PV sleeves after enzymatic digestion. […] All comparisons were based on PV and LA cardiomyocytes isolated from each dog on each experimental day. After isolation, cells were stored at 4° C. and studied on the same day. For standard microelectrode experiments, intact tissue preparations including the LA and adjacent PVs were mounted in a chamber and perfused via the circumflex artery with oxygenated Krebs solution at 36±0.5° C. (see for example Kneller et al. 2002).
Currents were recorded with the whole-cell patch-clamp technique at 36±0.5° C., as described in Yue et al. 1996. All junction potentials were zeroed prior to formation of gigaohm seals. […] Capacitance was assessed using 5 mV, 10 ms hyperpolarizing steps from a holding potential (HP) of −60 mV. […] Original recordings are shown in terms of current amplitude, but mean data are presented as current density (pA pF−1) to control for variability in cell size.
Currents were recorded with hyperpolarizing and depolarizing pulses (generally 4 s duration) from a HP of −40 mV to selected test potentials (TPs). Recordings were repeated 3 times, and mean values obtained. For the determination of reversal potentials, tail currents were recorded after 1.6 s pulses to −120 mV followed by 3.2 s depolarizations to TPs between −110 and +20. All voltage protocols were delivered at 0.1 Hz.
Tyrode solution contained (mM): NaCl 136, KCl 5.4, MgCl2 1, CaCl2 1, NaH2PO4 0.33, Hepes 5 and dextrose 10 (pH 7.35 with NaOH). The cell-storage solution contained (mM): KCl 20, KH2PO4 10, dextrose 10, mannitol 40, L-glutamic acid 70, β-OH-butyric acid 10, taurine 20, EGTA 10 and 0.1% bovine serum albumin (pH 7.3, KOH). Nifedipine (5 μM) was used to suppress L-type Ca^2+ current (ICa) in all experiments. 4-Aminopyridine (4-AP, 2 mM) was added to suppress transient outward current (Ito). […] Na+ current (INa) contamination was avoided by using a HP of −40 mV for recording of hyperpolarization-induced currents and by substitution of equimolar Tris-HCl for external NaCl for tail-current recordings.

IKATP = IKATP (Homo sapiens, UniProt Q14654); settings: at concentrations of 8 to 30 nM; cited from earlier work
Sequence of IKATP (Q14654 whole entry, species assumed): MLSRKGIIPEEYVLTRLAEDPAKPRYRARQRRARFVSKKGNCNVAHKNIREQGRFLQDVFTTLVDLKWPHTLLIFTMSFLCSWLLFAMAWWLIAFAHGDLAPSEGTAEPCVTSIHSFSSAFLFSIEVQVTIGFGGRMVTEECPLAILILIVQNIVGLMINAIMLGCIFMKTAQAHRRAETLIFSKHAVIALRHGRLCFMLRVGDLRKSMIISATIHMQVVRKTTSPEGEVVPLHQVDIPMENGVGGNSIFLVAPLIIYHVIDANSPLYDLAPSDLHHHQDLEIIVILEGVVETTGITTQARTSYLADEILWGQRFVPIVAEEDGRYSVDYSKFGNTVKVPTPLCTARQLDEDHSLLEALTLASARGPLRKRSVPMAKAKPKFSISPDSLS
Sequence of IKATP (O60706 whole entry partner, species assumed): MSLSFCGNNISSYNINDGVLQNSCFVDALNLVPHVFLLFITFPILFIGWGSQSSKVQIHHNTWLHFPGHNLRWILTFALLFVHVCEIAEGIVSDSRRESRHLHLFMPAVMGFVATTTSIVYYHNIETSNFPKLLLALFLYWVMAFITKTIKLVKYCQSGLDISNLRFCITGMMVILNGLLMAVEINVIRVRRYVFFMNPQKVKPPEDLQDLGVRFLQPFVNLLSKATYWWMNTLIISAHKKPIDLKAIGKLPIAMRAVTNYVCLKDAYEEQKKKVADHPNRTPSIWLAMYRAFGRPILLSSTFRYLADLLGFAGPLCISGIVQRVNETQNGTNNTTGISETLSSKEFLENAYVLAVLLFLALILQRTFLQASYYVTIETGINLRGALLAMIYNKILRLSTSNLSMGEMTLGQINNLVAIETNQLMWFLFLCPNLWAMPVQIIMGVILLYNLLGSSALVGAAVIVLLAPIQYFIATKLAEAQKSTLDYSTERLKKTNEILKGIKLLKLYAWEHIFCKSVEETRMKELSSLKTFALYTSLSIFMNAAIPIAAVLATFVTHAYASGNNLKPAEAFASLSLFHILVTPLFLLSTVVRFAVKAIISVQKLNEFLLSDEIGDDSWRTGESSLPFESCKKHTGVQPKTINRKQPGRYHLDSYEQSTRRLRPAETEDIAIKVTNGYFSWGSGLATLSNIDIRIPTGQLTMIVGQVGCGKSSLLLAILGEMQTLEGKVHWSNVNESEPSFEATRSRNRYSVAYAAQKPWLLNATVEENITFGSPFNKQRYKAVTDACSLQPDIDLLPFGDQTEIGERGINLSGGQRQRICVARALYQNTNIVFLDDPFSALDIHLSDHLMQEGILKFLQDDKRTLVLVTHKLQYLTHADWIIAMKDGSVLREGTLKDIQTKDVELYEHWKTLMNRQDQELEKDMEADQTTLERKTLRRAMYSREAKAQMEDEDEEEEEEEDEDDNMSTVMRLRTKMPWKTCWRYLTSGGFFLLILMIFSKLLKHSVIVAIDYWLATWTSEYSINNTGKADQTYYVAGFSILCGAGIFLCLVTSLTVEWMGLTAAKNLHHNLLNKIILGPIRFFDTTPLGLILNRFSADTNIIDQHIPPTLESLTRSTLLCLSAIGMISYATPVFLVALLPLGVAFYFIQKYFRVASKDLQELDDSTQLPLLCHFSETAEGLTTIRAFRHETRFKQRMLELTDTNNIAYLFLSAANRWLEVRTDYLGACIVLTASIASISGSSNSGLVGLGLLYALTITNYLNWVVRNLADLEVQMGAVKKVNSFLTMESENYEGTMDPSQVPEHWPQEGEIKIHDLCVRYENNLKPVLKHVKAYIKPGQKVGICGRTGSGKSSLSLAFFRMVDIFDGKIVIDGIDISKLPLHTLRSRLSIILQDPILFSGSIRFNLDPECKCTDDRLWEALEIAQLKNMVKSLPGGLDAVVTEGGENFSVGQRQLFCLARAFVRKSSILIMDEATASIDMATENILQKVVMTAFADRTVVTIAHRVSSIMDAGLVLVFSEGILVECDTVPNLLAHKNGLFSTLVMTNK

Which IC50 (Kir 3.1/3.4 currents) does the source give for tertiapin-Q here?
Its IC50 is 0.008 µM.

And the “decrease of mean instantaneous current” value [1]?
The value was 25%.

What about the “effect on time-dependent IKH (in words)” value (IKH; 200 nM tertiapin-Q, PV cardiomyocyte) of the same substance?
Its value is “abolished”.

And the “effect on time-dependent current (in words)” value (IKH; 1 μM tertiapin-Q, PV cardiomyocytes)?
Its value is “eliminated”.

What about the IC50 (IKH; at −120 mV, PV cardiomyocytes, read-out: IC50 for time-dependent IKH) of the same substance?
The IC50 was 0.01 µM and ~0.01 µM.

And the mean end-pulse current (IKH; at −120 mV, after 200 nM tertiapin-Q (before −2.84±0.89))?
The mean end-pulse current was 0.09±0.01 pA pF^−1.

What about the “effect on IKATP (in words)” value (IKATP) of the same substance?
Its value is “no effect”.
